Measured values as given in PubChem BioAssay AID330 (DTP/NCI, 2004).
Where “and” joins values, the source holds several entries; their conditions need not be identical. Identical values can stand only once. Toxic doses and inconclusive results are not listed.

Test system: P388 leukemia ip, CD2F1 mice, survival T/C
Experiment: NCI In Vivo Anticancer Drug Screen. Data for tumor model P388 Leukemia (intraperitoneal) in CD2F1 (CDF1) mice
Conditions: endpoint: median survival time, higher = longer survival
Procedure, shortened: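 Mice carrying the transplanted tumor received test compound or vehicle. Survival was recorded in each group, and the value is the treated-group measurement divided by that of the vehicle-treated control group.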

[1] = dose: 100.0 mg/kg/injection, schedule: Q04DX003 (ip), vehicle: Klucel (hydroxypropylcellulose) (HPC)
[2] = dose: 200.0 mg/kg/injection, schedule: Q04DX003 (ip), vehicle: Klucel (hydroxypropylcellulose) (HPC)
[3] = dose: 100.0 mg/kg/injection, schedule: Q01DX009 (ip), vehicle: saline
[4] = dose: 200.0 mg/kg/injection, schedule: Q01DX009 (ip), vehicle: saline
[5] = dose: 400.0 mg/kg/injection, schedule: Q01DX009 (ip), vehicle: saline
[6] = dose: 6.25 mg/kg/injection, schedule: Q01DX009 (ip), vehicle: saline
[7] = dose: 12.5 mg/kg/injection, schedule: Q01DX009 (ip), vehicle: saline
[8] = dose: 25.0 mg/kg/injection, schedule: Q01DX009 (ip), vehicle: saline
[9] = dose: 25.0 mg/kg/injection, schedule: Q01DX005 (ip), vehicle: water
[10] = dose: 50.0 mg/kg/injection, schedule: Q01DX005 (ip), vehicle: water
[11] = dose: 50.0 mg/kg/injection, schedule: Q01DX005 (ip), vehicle: saline with Tween-80
[12] = dose: 100.0 mg/kg/injection, schedule: Q01DX005 (ip), vehicle: saline with Tween-80
[13] = dose: 200.0 mg/kg/injection, schedule: Q01DX005 (ip), vehicle: saline with Tween-80

SMILES: CC#Cc1ccc(-c2ccccc2)s1
- T/C (dose: 1.0 mg/kg/injection, schedule: Q01DX005 (ip), vehicle: Klucel + Tween-80): 96 % of control
- T/C (dose: 2.0 mg/kg/injection, schedule: Q01DX005 (ip), vehicle: Klucel + Tween-80): 98 % of control
- T/C (dose: 4.0 mg/kg/injection, schedule: Q01DX005 (ip), vehicle: Klucel + Tween-80): 94 % of control
- T/C (dose: 8.0 mg/kg/injection, schedule: Q01DX005 (ip), vehicle: Klucel + Tween-80): 93 % of control

SMILES: COc1ccc(C2=NN(c3ccccc3)C(=O)/C2=C(/SC)N2CC2)cc1
- T/C [1]: 99 % of control
- T/C [2]: 91 % of control
- T/C (dose: 400.0 mg/kg/injection, schedule: Q04DX003 (ip), vehicle: Klucel (hydroxypropylcellulose) (HPC)): 102 % of control

SMILES: O=P(c1ccccc1)(c1ccccc1)c1ccccc1.O=P(c1ccccc1)(c1ccccc1)c1ccccc1.O=S(=O)(O)O.[Fe]
- T/C [1]: 93 % of control
- T/C [2]: 89 % of control

SMILES: O=S1(=O)NC2CCC3NS(=O)(=O)NC4CCC(N1)N4S(=O)(=O)N23 (stereo not given)
- T/C (dose: 50.0 mg/kg/injection, schedule: Q01DX005 (ip), vehicle: distilled water + alcohol): 101 % of control
- T/C (dose: 100.0 mg/kg/injection, schedule: Q01DX005 (ip), vehicle: distilled water + alcohol): 109 % of control
- T/C (dose: 200.0 mg/kg/injection, schedule: Q01DX005 (ip), vehicle: distilled water + alcohol): 105 % of control

SMILES: CCCOP(=O)(CCl)OCCC
- T/C [3]: 90 % of control
- T/C [4]: 95 % of control
- T/C [5]: 109 % of control

SMILES: O=[N+]([O-])CC(OCCCCCO)C(Cl)(Cl)Cl (stereo not given)
- T/C (dose: 50.0 mg/kg/injection, schedule: Q01DX009 (ip), vehicle: saline with Tween-80): 95 % of control
- T/C (dose: 100.0 mg/kg/injection, schedule: Q01DX009 (ip), vehicle: saline with Tween-80): 100 % of control
- T/C (dose: 200.0 mg/kg/injection, schedule: Q01DX009 (ip), vehicle: saline with Tween-80): 86 % of control

SMILES: O=C1Nc2ccccc2SC1c1ccccc1Cl (stereo not given)
- T/C [6]: 96 % of control
- T/C [7]: 99 % of control
- T/C [8]: 105 % of control
- T/C (dose: 50.0 mg/kg/injection, schedule: Q01DX009 (ip), vehicle: saline): 106 % of control and 93 % of control
- T/C [3]: 102 % of control
- T/C [4]: 105 % of control
- T/C [5]: 113 % of control

SMILES: N#CC(Cc1ccc(Cl)cc1)c1ccccc1 (stereo not given)
- T/C (dose: 50.0 mg/kg/injection, schedule: Q01DX009 (ip), vehicle: Klucel (hydroxypropylcellulose) (HPC)): 89 % of control
- T/C (dose: 100.0 mg/kg/injection, schedule: Q01DX009 (ip), vehicle: Klucel (hydroxypropylcellulose) (HPC)): 95 % of control
- T/C (dose: 200.0 mg/kg/injection, schedule: Q01DX009 (ip), vehicle: Klucel (hydroxypropylcellulose) (HPC)): 96 % of control

SMILES: Cc1nc(N)nc(N)c1N1CCN(c2ccc(C(=O)NC(CCC(=O)O)C(=O)O)cc2)CC1 (stereo not given)
- T/C (dose: 1.56 mg/kg/injection, schedule: Q01DX005 (ip), vehicle: water): 111 % of control
- T/C (dose: 12.5 mg/kg/injection, schedule: Q01DX005 (ip), vehicle: distilled water + Tween-80): 168 % of control
- T/C (dose: 12.5 mg/kg/injection, schedule: Q01DX005 (ip), vehicle: water): 150 % of control
- T/C (dose: 25.0 mg/kg/injection, schedule: Q01DX005 (ip), vehicle: distilled water + Tween-80): 176 % of control
- T/C [9]: 176 % of control
- T/C [10]: 222 % of control
- T/C (dose: 100.0 mg/kg/injection, schedule: Q01DX005 (ip), vehicle: distilled water + Tween-80): 87 % of control

SMILES: CC(C)NC(=O)OCc1c(COC(=O)NC(C)C)c2n(c1Br)CCC2
- T/C (dose: 25.0 mg/kg/injection, schedule: Q01DX005 (ip), vehicle: saline with Tween-80): 186 % of control

SMILES: O=c1c(N=Nc2ccccc2Cl)c(O)n(-c2ccc(Br)cc2)c(=S)n1-c1ccccc1
- T/C (dose: 100.0 mg/kg/injection, schedule: Q04DX002 (ip), vehicle: saline with Tween-80): 96 % of control
- T/C (dose: 200.0 mg/kg/injection, schedule: Q04DX002 (ip), vehicle: saline with Tween-80): 90 % of control
- T/C (dose: 400.0 mg/kg/injection, schedule: Q04DX002 (ip), vehicle: saline with Tween-80): 90 % of control

SMILES: N#CC(CCCC(C#N)(c1ccccc1)c1ccccc1)(c1ccccc1)c1ccccc1
- T/C (dose: 100.0 mg/kg/injection, schedule: Q01DX001 (ip), vehicle: Klucel (hydroxypropylcellulose) (HPC)): 100 % of control
- T/C (dose: 200.0 mg/kg/injection, schedule: Q01DX001 (ip), vehicle: Klucel (hydroxypropylcellulose) (HPC)): 101 % of control
- T/C (dose: 400.0 mg/kg/injection, schedule: Q01DX001 (ip), vehicle: Klucel (hydroxypropylcellulose) (HPC)): 105 % of control

SMILES: COC1=CC(=O)C2CC=CC3CC(=O)OC1C32C (stereo not given)
- T/C (dose: 100.0 mg/kg/injection, schedule: Q04DX002 (ip), vehicle: Klucel (hydroxypropylcellulose) (HPC)): 100 % of control
- T/C (dose: 200.0 mg/kg/injection, schedule: Q04DX002 (ip), vehicle: Klucel (hydroxypropylcellulose) (HPC)): 94 % of control
- T/C (dose: 400.0 mg/kg/injection, schedule: Q04DX002 (ip), vehicle: Klucel (hydroxypropylcellulose) (HPC)): 100 % of control

SMILES: COC(=O)C(CC(=O)c1cc2c(cc1Br)OCO2)(Cc1cc(OC)c(OC)c(OC)c1I)C(=O)OC
- T/C (dose: 3.12 mg/kg/injection, schedule: Q01DX009 (ip), vehicle: saline): 97 % of control
- T/C [6]: 98 % of control
- T/C [7]: 97 % of control
- T/C [8]: 98 % of control
- T/C (dose: 100.0 mg/kg/injection, schedule: Q01DX001 (ip), vehicle: saline): 100 % of control
- T/C (dose: 200.0 mg/kg/injection, schedule: Q01DX001 (ip), vehicle: saline): 98 % of control
- T/C (dose: 400.0 mg/kg/injection, schedule: Q01DX001 (ip), vehicle: saline): 100 % of control

SMILES: O=S(=O)(Nc1ccc2ccc(NS(=O)(=O)N3CCCCC3)cc2c1)N1CCCCC1
- T/C [11]: 104 % of control
- T/C [12]: 95 % of control
- T/C [13]: 100 % of control

SMILES: COc1cccc2c1C(=O)c1c(O)c3c(c(O)c1C2=O)CC(O)(C(C)=O)CC3OC1CC(NC2CCOCC2)C(O)C(C)O1 (stereo not given)
- T/C (dose: 3.12 mg/kg/injection, schedule: Q04DX003 (ip), vehicle: water): 101 % of control
- T/C (dose: 6.25 mg/kg/injection, schedule: Q04DX003 (ip), vehicle: water): 101 % of control and 107 % of control
- T/C (dose: 12.5 mg/kg/injection, schedule: Q04DX003 (ip), vehicle: water): 102 % of control and 107 % of control
- T/C (dose: 25.0 mg/kg/injection, schedule: Q04DX003 (ip), vehicle: water): 118 % of control
- T/C (dose: 50.0 mg/kg/injection, schedule: Q04DX003 (ip), vehicle: water): 120 % of control
- T/C (dose: 200.0 mg/kg/injection, schedule: Q04DX003 (ip), vehicle: water): 111 % of control

SMILES: N#CCCSC(=S)N1CCN(C(=S)SCCC#N)C1=O
- T/C [11]: 92 % of control
- T/C [12]: 87 % of control
- T/C [13]: 92 % of control

SMILES: O=C1c2ccccc2OCC1CS(=O)(=O)CC1COc2ccccc2C1=O (stereo not given)
- T/C (dose: 100.0 mg/kg/injection, schedule: Q04DX003 (ip), vehicle: saline): 98 % of control
- T/C (dose: 200.0 mg/kg/injection, schedule: Q04DX003 (ip), vehicle: saline): 97 % of control
- T/C (dose: 400.0 mg/kg/injection, schedule: Q04DX003 (ip), vehicle: saline): 91 % of control

SMILES: O=C(NC(Cc1ccc(I)cc1)C(=O)O)c1ccc(Cl)cc1 (stereo not given)
- T/C (dose: 50.0 mg/kg/injection, schedule: Q01DX005 (ip), vehicle: Klucel (hydroxypropylcellulose) (HPC)): 95 % of control
- T/C (dose: 100.0 mg/kg/injection, schedule: Q01DX005 (ip), vehicle: Klucel (hydroxypropylcellulose) (HPC)): 100 % of control
- T/C (dose: 200.0 mg/kg/injection, schedule: Q01DX005 (ip), vehicle: Klucel (hydroxypropylcellulose) (HPC)): 108 % of control

SMILES: COC(=O)C(CO)NC(=O)OCc1ccccc1 (stereo not given)
- T/C [9]: 99 % of control
- T/C [10]: 94 % of control
- T/C (dose: 50.0 mg/kg/injection, schedule: Q01DX009 (ip), vehicle: distilled water + alcohol): 95 % of control
- T/C (dose: 100.0 mg/kg/injection, schedule: Q01DX005 (ip), vehicle: water): 105 % of control
- T/C (dose: 100.0 mg/kg/injection, schedule: Q01DX009 (ip), vehicle: distilled water + alcohol): 98 % of control
- T/C (dose: 200.0 mg/kg/injection, schedule: Q01DX005 (ip), vehicle: water): 99 % of control
- T/C (dose: 200.0 mg/kg/injection, schedule: Q01DX009 (ip), vehicle: distilled water + alcohol): 100 % of control
- T/C (dose: 400.0 mg/kg/injection, schedule: Q01DX009 (ip), vehicle: distilled water + alcohol): 96 % of control

SMILES: CN(C)CCSC1=Nc2ccc(Cl)cc2C(c2ccccc2Cl)N(C)C1 (stereo not given)
- T/C (dose: 60.0 mg/kg/injection, schedule: Q01DX005 (ip), vehicle: Klucel (hydroxypropylcellulose) (HPC)): 100 % of control
- T/C (dose: 120.0 mg/kg/injection, schedule: Q01DX005 (ip), vehicle: Klucel (hydroxypropylcellulose) (HPC)): 100 % of control
